Experimental data taken from US20240092758A1, “IMIDAZOLO INDAZOLE COMPOUNDS AS JAK INHIBITORS” (Theravance Biopharma R&D IP, LLC, priority 2021, published 2024).

Experiments:
[1] = biological target: JAK1 (Homo sapiens (Human), UniProt P23458); test: Biochemical JAK kinase assay (LanthaScreen), JAK1; details: for Ki: read-out: JAK1 pKi (converted)
In short: (§1)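 LanthaScreen format: phospho-STAT1 (pTyr701) detected with 2 nM Tb antibody after 10 mM EDTA quench. Kinase step used Km-level ATP and 200 nM STAT1 peptide, 1 h at ambient after 1 h pre-incubation. Inhibition fitted to IC50, reported as pKi.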

[2] = biological target: JAK2 (Homo sapiens (Human), UniProt O60674); test: Biochemical JAK kinase assay (LanthaScreen), JAK2; details: for Ki: read-out: JAK2 pKi (converted)
In short: as §1

[3] = biological target: JAK3 (Homo sapiens (Human), UniProt P52333); test: Biochemical JAK kinase assay (LanthaScreen), JAK3; details: read-out: JAK3 pKi (converted)
Experimental: (§2) A panel of four LanthaScreen JAK biochemical assays (JAK1, 2, 3 and Tyk2) were carried in a common kinase reaction buffer (50 mM HEPES, pH 7.5, 0.01% Brij-35, 10 mM MgCl2, and 1 mM EGTA). Recombinant GST-tagged JAK enzymes and a GFP-tagged STAT1 peptide substrate were obtained from Life Technologies.
(§3) Serially diluted compounds were pre-incubated with each of the four JAK enzymes and the substrate in white 384-well microplates (Corning) at ambient temperature for 1 h. ATP was subsequently added to initiate the kinase reactions in 10 μL total volume, with 1% DMSO. The final enzyme concentrations for JAK1, 2, 3 and Tyk2 are 4.2 nM, 0.1 nM, 1 nM, and 0.25 nM respectively; the corresponding Km ATP concentrations used are 25 μM, 3 μM, 1.6 μM, and 10 μM; while the substrate concentration is 200 nM for all four assays. Kinase reactions were allowed to proceed for 1 hour at ambient temperature before a 10 μL preparation of EDTA (10 mM final concentration) and Tb-anti-pSTAT1 (pTyr701) antibody (Life Technologies, 2 nM final concentration) in TR-FRET dilution buffer (Life Technologies) was added. The plates were allowed to incubate at ambient temperature for 1 h before being read on the EnVision reader (Perkin Elmer). Emission ratio signals (520 nm/495 nm) were recorded and utilized to calculate the percent inhibition values based on DMSO and background controls.
(§4) For dose-response analysis, percent inhibition data were plotted vs. compound concentrations, and IC50 values were determined from a 4-parameter robust fit model with the Prism software (GraphPad Software). Results were expressed as pIC50 (negative logarithm of IC50) and subsequently converted to pKi (negative logarithm of dissociation constant, Ki) using the Cheng-Prusoff equation.
(§5) Test compounds having a lower Ki value or higher pKi value in the four JAK assays show greater inhibition of JAK activity.

[4] = biological target: TYK2 (Homo sapiens (Human), UniProt P29597); test: Biochemical JAK kinase assay (LanthaScreen), Tyk2; details: read-out: Tyk2 pKi (converted)
Experimental: as §2, §3, §4, §5

[5] = test system: IL-13 induced STAT6 phosphorylation in BEAS-2B human lung epithelial cells; test: Cellular JAKI potency assay (BEAS-2B); format: cell-based; details: BEAS-2B cells; for IC50: Homo sapiens, BEAS-2B, read-out: BEAS2B pIC50 (converted)
In short: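 BEAS-2B cells were preincubated with compound (0.1% DMSO) in HBSS/HEPES/BSA for 1 h at 37 °C, then stimulated with IL-13 (80 ng/mL before addition) for 30 min. After lysis, pSTAT6 (Tyr641) was quantified by AlphaLISA SureFire; IC50 from a 4-parameter fit of percent inhibition, reported as pIC50.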

Chain of JAK2 (O60674 whole entry): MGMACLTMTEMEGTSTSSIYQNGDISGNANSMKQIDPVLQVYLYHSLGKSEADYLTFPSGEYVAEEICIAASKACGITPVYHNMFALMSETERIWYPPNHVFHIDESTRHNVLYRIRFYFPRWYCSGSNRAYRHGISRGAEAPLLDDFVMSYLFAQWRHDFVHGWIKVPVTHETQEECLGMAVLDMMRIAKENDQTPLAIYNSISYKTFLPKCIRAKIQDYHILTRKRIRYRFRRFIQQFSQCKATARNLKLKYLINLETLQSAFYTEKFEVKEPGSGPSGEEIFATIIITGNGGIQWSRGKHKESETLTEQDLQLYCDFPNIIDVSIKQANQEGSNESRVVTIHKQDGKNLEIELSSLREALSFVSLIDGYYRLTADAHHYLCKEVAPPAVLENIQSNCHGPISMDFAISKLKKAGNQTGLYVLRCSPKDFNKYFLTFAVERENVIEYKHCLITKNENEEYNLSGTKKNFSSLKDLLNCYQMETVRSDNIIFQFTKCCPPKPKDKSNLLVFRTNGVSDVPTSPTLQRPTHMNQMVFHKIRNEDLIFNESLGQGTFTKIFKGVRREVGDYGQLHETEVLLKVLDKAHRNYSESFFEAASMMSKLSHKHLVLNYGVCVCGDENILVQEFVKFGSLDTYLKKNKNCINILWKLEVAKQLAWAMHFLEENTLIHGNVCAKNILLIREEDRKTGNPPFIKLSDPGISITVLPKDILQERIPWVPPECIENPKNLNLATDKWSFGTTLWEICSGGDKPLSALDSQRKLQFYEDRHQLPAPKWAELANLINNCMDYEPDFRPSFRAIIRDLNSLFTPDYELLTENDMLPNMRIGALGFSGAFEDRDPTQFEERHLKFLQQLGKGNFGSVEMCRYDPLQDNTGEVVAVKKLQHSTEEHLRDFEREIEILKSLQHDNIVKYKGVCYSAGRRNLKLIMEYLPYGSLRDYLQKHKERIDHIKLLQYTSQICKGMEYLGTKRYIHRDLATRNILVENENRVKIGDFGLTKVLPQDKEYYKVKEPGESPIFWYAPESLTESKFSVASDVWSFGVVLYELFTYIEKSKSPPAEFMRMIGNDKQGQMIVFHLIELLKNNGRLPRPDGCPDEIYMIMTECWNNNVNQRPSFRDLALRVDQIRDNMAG
Chain of TYK2 (P29597 whole entry): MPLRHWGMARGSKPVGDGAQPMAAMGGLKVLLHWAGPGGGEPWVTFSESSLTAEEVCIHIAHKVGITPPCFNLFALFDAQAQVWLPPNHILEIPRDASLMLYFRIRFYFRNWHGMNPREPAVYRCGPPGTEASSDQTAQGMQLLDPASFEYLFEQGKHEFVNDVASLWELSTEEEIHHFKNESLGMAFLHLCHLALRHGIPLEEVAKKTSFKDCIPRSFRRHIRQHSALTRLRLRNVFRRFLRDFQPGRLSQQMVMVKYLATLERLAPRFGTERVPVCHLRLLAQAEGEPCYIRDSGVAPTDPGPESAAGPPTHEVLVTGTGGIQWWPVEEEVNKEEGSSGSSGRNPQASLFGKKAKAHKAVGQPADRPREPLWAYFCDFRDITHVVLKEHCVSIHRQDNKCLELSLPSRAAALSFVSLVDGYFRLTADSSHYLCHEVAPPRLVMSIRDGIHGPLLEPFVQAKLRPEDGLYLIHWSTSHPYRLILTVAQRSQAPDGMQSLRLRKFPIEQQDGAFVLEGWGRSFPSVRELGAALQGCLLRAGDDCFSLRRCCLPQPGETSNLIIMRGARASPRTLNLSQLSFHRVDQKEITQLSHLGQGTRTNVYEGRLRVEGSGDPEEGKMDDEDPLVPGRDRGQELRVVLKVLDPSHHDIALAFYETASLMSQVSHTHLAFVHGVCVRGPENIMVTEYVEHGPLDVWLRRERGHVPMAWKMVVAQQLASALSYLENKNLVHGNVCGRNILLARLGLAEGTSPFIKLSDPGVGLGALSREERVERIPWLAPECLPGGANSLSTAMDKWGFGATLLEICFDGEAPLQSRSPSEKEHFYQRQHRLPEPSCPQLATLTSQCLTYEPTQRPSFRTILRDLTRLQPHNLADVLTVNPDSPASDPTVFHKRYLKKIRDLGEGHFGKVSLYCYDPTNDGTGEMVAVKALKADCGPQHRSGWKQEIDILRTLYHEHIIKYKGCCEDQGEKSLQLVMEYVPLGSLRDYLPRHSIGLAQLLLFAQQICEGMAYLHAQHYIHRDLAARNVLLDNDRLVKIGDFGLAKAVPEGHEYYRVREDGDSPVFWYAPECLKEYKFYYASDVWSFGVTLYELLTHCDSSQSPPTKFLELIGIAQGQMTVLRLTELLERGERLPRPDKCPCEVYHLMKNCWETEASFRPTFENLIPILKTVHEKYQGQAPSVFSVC
Chain of JAK1 (P23458 whole entry): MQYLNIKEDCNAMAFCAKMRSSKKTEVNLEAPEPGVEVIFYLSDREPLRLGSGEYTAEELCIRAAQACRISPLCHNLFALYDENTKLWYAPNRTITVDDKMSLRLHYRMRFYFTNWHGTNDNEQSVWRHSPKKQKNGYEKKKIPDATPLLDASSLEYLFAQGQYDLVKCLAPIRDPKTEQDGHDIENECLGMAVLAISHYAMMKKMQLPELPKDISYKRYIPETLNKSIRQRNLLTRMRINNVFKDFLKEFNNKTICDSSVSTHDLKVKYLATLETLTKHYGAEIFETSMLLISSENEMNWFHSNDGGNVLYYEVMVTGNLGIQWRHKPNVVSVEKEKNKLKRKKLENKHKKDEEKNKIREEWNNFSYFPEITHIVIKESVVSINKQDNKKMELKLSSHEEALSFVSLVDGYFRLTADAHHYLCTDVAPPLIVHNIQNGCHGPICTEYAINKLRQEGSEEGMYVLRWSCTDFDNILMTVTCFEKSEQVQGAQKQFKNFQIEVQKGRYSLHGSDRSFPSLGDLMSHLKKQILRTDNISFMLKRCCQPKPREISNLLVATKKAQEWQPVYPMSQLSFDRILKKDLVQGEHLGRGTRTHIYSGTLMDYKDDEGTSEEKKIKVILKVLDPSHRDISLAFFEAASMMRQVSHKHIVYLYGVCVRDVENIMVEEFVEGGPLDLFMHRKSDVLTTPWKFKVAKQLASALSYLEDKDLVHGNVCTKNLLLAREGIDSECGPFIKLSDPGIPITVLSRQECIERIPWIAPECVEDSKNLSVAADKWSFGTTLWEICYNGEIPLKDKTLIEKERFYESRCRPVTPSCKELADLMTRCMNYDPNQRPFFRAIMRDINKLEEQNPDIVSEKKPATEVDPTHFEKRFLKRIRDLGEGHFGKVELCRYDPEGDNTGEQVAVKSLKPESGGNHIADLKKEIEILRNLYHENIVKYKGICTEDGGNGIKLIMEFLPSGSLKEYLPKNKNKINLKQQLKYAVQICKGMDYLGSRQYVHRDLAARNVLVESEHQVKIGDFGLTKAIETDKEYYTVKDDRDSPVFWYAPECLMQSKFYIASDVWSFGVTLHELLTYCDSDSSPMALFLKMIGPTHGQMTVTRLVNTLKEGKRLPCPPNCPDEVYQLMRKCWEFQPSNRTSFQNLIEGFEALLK
Chain of JAK3 (P52333 whole entry): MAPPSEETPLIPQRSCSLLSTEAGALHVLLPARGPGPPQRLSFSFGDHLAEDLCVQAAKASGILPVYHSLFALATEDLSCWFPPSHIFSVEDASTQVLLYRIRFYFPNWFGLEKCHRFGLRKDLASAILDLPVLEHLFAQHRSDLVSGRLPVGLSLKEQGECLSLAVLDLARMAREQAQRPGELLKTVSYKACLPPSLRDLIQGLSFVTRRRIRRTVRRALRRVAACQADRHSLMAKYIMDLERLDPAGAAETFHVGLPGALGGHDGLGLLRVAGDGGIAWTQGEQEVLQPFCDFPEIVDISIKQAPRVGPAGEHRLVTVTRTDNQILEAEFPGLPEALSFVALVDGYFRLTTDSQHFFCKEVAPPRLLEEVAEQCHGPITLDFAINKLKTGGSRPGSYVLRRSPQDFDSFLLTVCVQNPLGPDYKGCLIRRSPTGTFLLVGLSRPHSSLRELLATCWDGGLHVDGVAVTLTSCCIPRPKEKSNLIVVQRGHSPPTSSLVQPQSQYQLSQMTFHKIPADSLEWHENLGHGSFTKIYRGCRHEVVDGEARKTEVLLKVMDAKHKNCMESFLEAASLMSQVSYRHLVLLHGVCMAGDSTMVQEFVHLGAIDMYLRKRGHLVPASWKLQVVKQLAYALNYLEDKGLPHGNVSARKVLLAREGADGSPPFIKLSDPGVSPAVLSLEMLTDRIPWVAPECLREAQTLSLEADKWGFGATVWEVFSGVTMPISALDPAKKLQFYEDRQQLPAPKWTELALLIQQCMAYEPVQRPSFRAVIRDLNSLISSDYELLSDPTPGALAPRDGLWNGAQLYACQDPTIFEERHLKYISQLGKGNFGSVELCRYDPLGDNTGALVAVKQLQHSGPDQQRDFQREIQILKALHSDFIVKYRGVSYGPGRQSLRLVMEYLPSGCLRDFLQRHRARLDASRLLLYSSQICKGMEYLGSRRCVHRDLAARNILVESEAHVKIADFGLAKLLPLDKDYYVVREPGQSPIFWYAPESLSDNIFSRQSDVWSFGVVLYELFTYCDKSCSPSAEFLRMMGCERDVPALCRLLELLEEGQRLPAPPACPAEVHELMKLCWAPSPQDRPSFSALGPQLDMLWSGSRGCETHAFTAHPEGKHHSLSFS

## CCc1cc(O)ccc1-c1ccc2c(-c3nc(C4=CCCN(CCSC)C4)c[nH]3)n[nH]c2c1F [Example 90]
[1]
  Ki: 0.1 to 1 nM
[2]
  Ki: 0.1 to 1 nM
[3]
  Ki: 0.1 to 1 nM
[4]
  Ki: 10 to 100 nM
[5]
  IC50: 31.6 to 100 nM

## CCc1cc(O)ccc1-c1ccc2c(-c3nc(C4=CCN(CCCO)CC4)c[nH]3)n[nH]c2c1 [Example 34]
[1]
  JAK1 pKi: A (A represents a pKi value ≥10 (Ki≤0.1 nM))
[2]
  JAK2 pKi: A (A represents a pKi value ≥10 (Ki≤0.1 nM))
[3]
  Ki: 0.1 to 1 nM
[4]
  Ki: 1 to 10 nM
[5]
  IC50: 3.16 to 10 nM

## CCc1cc(O)ccc1-c1ccc2c(-c3nc(C4=CCN(C(=O)CN)C4)c[nH]3)n[nH]c2c1F [Example 173]
[1]
  Ki: 0.1 to 1 nM
[2]
  JAK2 pKi: A (A represents a pKi value ≥10 (Ki≤0.1 nM))
[3]
  Ki: 0.1 to 1 nM
[4]
  Ki: 1 to 10 nM
[5]
  IC50: 31.6 to 100 nM

## CCc1cc(O)ccc1-c1ccc2c(-c3nc(C4=CCCN(C[C@@H]5COCCN5)C4)c[nH]3)n[nH]c2c1F [Example 196]
[1]
  Ki: 1 to 10 nM
[2]
  Ki: 0.1 to 1 nM
[3]
  Ki: 0.1 to 1 nM
[4]
  Ki: 10 to 100 nM
[5]
  IC50: 31.6 to 100 nM

## CCc1cc(O)ccc1-c1ccc2c(-c3nc(C4=CC(CC)NC4)c[nH]3)n[nH]c2c1F (stereo not drawn) [Example 321]
[1]
  Ki: 0.1 to 1 nM
[2]
  Ki: 0.1 to 1 nM
[3]
  Ki: 0.1 to 1 nM
[4]
  Ki: 1 to 10 nM
[5]
  IC50: 10 to 31.6 nM

## CCc1cc(O)ccc1-c1ccc2c(-c3nc(C4=CCN(C5CCN(C)C5)C4)c[nH]3)n[nH]c2c1F (stereo not drawn) [Example 219]
[1]
  Ki: 0.1 to 1 nM
[2]
  JAK2 pKi: A (A represents a pKi value ≥10 (Ki≤0.1 nM))
[3]
  Ki: 0.1 to 1 nM
[4]
  Ki: 0.1 to 1 nM
[5]
  IC50: 10 to 31.6 nM

## CCc1cc(O)ccc1-c1ccc2c(-c3nc(C4=CCN(C(=O)[C@@H](N)C(C)(C)O)C4)c[nH]3)n[nH]c2c1F [Example 174]
[1]
  Ki: 0.1 to 1 nM
[2]
  Ki: 0.1 to 1 nM
[3]
  Ki: 0.1 to 1 nM
[4]
  Ki: 1 to 10 nM
[5]
  IC50: 10 to 31.6 nM

## CCc1cc(O)ccc1-c1ccc2c(-c3nc(C4=CCN(CCN5CCOCC5)CC4)c[nH]3)n[nH]c2c1F [Example 191]
[1]
  JAK1 pKi: A (A represents a pKi value ≥10 (Ki≤0.1 nM))
[2]
  JAK2 pKi: A (A represents a pKi value ≥10 (Ki≤0.1 nM))
[3]
  Ki: 0.1 to 1 nM
[4]
  Ki: 1 to 10 nM
[5]
  IC50: 10 to 31.6 nM

## CCc1cc(O)ccc1-c1ccc2c(-c3nc(C4=CCN(CCO)CC4)c[nH]3)n[nH]c2c1F [Example 36]
[1]
  JAK1 pKi: A (A represents a pKi value ≥10 (Ki≤0.1 nM))
[2]
  Ki: 0.1 to 1 nM
[3]
  Ki: 0.1 to 1 nM
[4]
  Ki: 1 to 10 nM
[5]
  IC50: 3.16 to 10 nM

## CCc1cc(O)ccc1-c1ccc2c(-c3nc(C4=CC5CCCC(C4)N5)c[nH]3)n[nH]c2c1 (stereo not drawn) [Example 225]
[1]
  Ki: 0.1 to 1 nM
[2]
  Ki: 0.1 to 1 nM
[3]
  Ki: 0.1 to 1 nM
[4]
  Ki: 1 to 10 nM
[5]
  IC50: 31.6 to 100 nM

## CCc1cc(O)ccc1-c1ccc2c(-c3nc(C4=CCN(S(=O)(=O)C5CNC5)CC4)c[nH]3)n[nH]c2c1 [Example 175]
[1]
  Ki: 0.1 to 1 nM
[2]
  Ki: 0.1 to 1 nM
[3]
  Ki: 0.1 to 1 nM
[4]
  Ki: 1 to 10 nM
[5]
  IC50: 31.6 to 100 nM

## CCc1cc(O)ccc1-c1ccc2c(-c3nc(C4=CCCN(C(C)C)C4)c[nH]3)n[nH]c2c1F [Example 30]
[1]
  Ki: 0.1 to 1 nM
[2]
  Ki: 0.1 to 1 nM
[3]
  Ki: 0.1 to 1 nM
[4]
  Ki: 1 to 10 nM
[5]
  IC50: 10 to 31.6 nM

## CCc1cc(O)ccc1-c1ccc2c(-c3nc(C4=CCCN(C5CCNC5)C4)c[nH]3)n[nH]c2c1F (stereo not drawn) [Example 214]
[1]
  Ki: 0.1 to 1 nM
[2]
  JAK2 pKi: A (A represents a pKi value ≥10 (Ki≤0.1 nM))
[3]
  Ki: 0.1 to 1 nM
[4]
  Ki: 10 to 100 nM
[5]
  IC50: 316 to 1000 nM

## CCOC[C@H]1C=C(c2c[nH]c(-c3n[nH]c4c(F)c(-c5ccc(O)cc5CC)ccc34)n2)CN1 [Example 307]
[1]
  Ki: 0.1 to 1 nM
[2]
  Ki: 0.1 to 1 nM
[3]
  Ki: 0.1 to 1 nM
[4]
  Ki: 1 to 10 nM
[5]
  IC50: 10 to 31.6 nM

## CCc1cc(O)ccc1-c1ccc2c(-c3nc(C4=CC(C)NC4)c[nH]3)n[nH]c2c1F (stereo not drawn) [Example 244]
[1]
  Ki: 0.1 to 1 nM
[2]
  Ki: 0.1 to 1 nM
[3]
  Ki: 0.1 to 1 nM
[4]
  Ki: 1 to 10 nM
[5]
  IC50: 3.16 to 10 nM

## CCc1cc(O)ccc1-c1ccc2c(-c3nc(C4=CCN(C5CN(C)C5)CC4)c[nH]3)n[nH]c2c1F [Example 186]
[1]
  Ki: 0.1 to 1 nM
[2]
  Ki: 0.1 to 1 nM
[3]
  Ki: 0.1 to 1 nM
[4]
  Ki: 1 to 10 nM
[5]
  IC50: 3.16 to 10 nM

## CCc1cc(O)ccc1-c1ccc2c(-c3nc(C4=CCN(C5CCCN(C)C5)C4)c[nH]3)n[nH]c2c1F (stereo not drawn) [Example 223]
[1]
  Ki: 0.1 to 1 nM
[2]
  JAK2 pKi: A (A represents a pKi value ≥10 (Ki≤0.1 nM))
[3]
  Ki: 0.1 to 1 nM
[4]
  Ki: 1 to 10 nM
[5]
  IC50: 10 to 31.6 nM

## CCc1cc(O)ccc1-c1ccc2c(-c3nc(C4=CCCN(C5CN(C)C5)C4)c[nH]3)n[nH]c2c1F [Example 195]
[1]
  Ki: 0.1 to 1 nM
[2]
  Ki: 0.1 to 1 nM
[3]
  Ki: 0.1 to 1 nM
[4]
  Ki: 1 to 10 nM
[5]
  IC50: 31.6 to 100 nM

## CCc1cc(O)ccc1-c1ccc2c(-c3nc(C4=CCCN(CCCO)C4)c[nH]3)n[nH]c2c1 [Example 42]
[1]
  JAK1 pKi: A (A represents a pKi value ≥10 (Ki≤0.1 nM))
[2]
  JAK2 pKi: A (A represents a pKi value ≥10 (Ki≤0.1 nM))
[3]
  Ki: 0.1 to 1 nM
[4]
  Ki: 1 to 10 nM
[5]
  IC50: 3.16 to 10 nM

## CCc1cc(O)ccc1-c1ccc2c(-c3nc(C4=CCN(C5CCNC5)C4)c[nH]3)n[nH]c2c1F (stereo not drawn) [Example 218]
[1]
  JAK1 pKi: A (A represents a pKi value ≥10 (Ki≤0.1 nM))
[2]
  JAK2 pKi: A (A represents a pKi value ≥10 (Ki≤0.1 nM))
[3]
  Ki: 0.1 to 1 nM
[4]
  Ki: 1 to 10 nM
[5]
  IC50: 31.6 to 100 nM

## CCc1cc(O)ccc1-c1ccc2c(-c3nc(C4=CCN(C5COC5)C4)c[nH]3)n[nH]c2c1F [Example 75]
[1]
  Ki: 0.1 to 1 nM
[2]
  Ki: 0.1 to 1 nM
[3]
  Ki: 0.1 to 1 nM
[4]
  Ki: 1 to 10 nM
[5]
  IC50: 10 to 31.6 nM

## CCc1cc(O)ccc1-c1ccc2c(-c3nc(C4=CCN([C@H]5CC[C@@H](O)CC5)C4)c[nH]3)n[nH]c2c1F [Example 305]
[1]
  Ki: 0.1 to 1 nM
[2]
  JAK2 pKi: A (A represents a pKi value ≥10 (Ki≤0.1 nM))
[3]
  Ki: 0.1 to 1 nM
[4]
  Ki: 0.1 to 1 nM
[5]
  BEAS2B pIC50: B (B represents a pIC50 value between 7.5 (included) and 8)

## CCc1cc(O)ccc1-c1ccc2c(-c3nc(C4=CCN(C5CCNC5)CC4)c[nH]3)n[nH]c2c1F (stereo not drawn) [Example 207]
[1]
  Ki: 0.1 to 1 nM
[2]
  JAK2 pKi: A (A represents a pKi value ≥10 (Ki≤0.1 nM))
[3]
  Ki: 0.1 to 1 nM
[4]
  Ki: 1 to 10 nM
[5]
  IC50: 100 to 316 nM

## CCc1cc(O)ccc1-c1ccc2c(-c3nc(C4=C[C@@H](CO)NC4)c[nH]3)n[nH]c2c1F [Example 245]
[1]
  Ki: 0.1 to 1 nM
[2]
  Ki: 0.1 to 1 nM
[3]
  Ki: 0.1 to 1 nM
[4]
  Ki: 10 to 100 nM
[5]
  IC50: 31.6 to 100 nM
